This is an account of results in doi:10.64898/2025.12.18.695269, “Structural Basis of TACO1-Mediated Efficient Mitochondrial Translation” (bioRxiv, 2025).

Test [1] deals with T1, TACO1 (Homo sapiens, UniProt Q9BSH4).
T1 construct: recombinant TACO1
Briefly: fluorescence increase of BODIPY-labelled nucleotide, saturation fit. It counts as binding. Conditions: labelled compound; 500 nM TACO1, 0-30 μM ligand, 10 min.

The target in test [2] is T1, TACO1. Briefly: competition with BODIPY-FL-GTPγS fluorescence binding. The settings on record: pre-incubation with GMPPNP before BODIPY-FL-GTPγS; competitive.

Take BODIPY-FL-GTPγS: the Kd at TACO1 [1] was found to be 25 µM.
As for `Nc1nc2c(ncn2[C@@H]2O[C@H](COP(=O)(O)OP(=O)(O)NP(=O)(O)O)[C@@H](O)[C@H]2O)c(=O)[nH]1` [GMPPNP], the “competition with BODIPY-FL-GTPγS fluorescence binding” value at TACO1 [2] is listed as “This effect was abolished by pre-incubation with the non-hydrolyzable GTP analog GMPPNP”.

A word on the Kd: it is the equilibrium constant for the complex coming apart. Low values mean tighter binding, high ones weaker binding.
